Columns and labels:
Assay in all cases: relative viability (nuclei count vs DMSO), 5 days (fraction); higher = more cells survive
[1] = compound: CC1=C(C(=NN1)C)CC2=C(C3=C(S2)N(C(=O)N(C3=O)C)CC(C)C)C(=O)N4C[C@@H](CO4)O + CC(=O)c1c(C)c2cnc(Nc3ccc(N4CCNCC4)cn3)nc2n(C2CCCC2)c1=O [Palbociclib] (partner 0.5 µM)
Summary of the method: (§1)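 Cells from lung cancer lines were seeded into 1536-well plates and, one day later, dosed by pin tool. Treatments were either a single drug or a fixed dose of an anchor drug with five library-drug doses (not always all listed) in √10 steps. After 5 days, nuclei were stained in a one-step fixation (final 0.05% Triton X-100, 1% formaldehyde, 1 ug/ml Hoechst) and counted on 4× images, and relative viability is the treated-to-vehicle nuclei ratio, as the median of duplicate plates.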

IDH-C35 + Bortezomib = compound: Cc1ccccc1C(C(=O)NC1CCCCC1)N(C(=O)Cn1ccnc1C)c1cccc(F)c1 [IDH-C35] + CC(C)C[C@H](NC(=O)[C@H](Cc1ccccc1)NC(=O)c1cnccn1)B(O)O [Bortezomib] (partner 0.002 µM)
Summary of the method: as §1

IDH-C35 + Vorinostat = compound: Cc1ccccc1C(C(=O)NC1CCCCC1)N(C(=O)Cn1ccnc1C)c1cccc(F)c1 [IDH-C35] + O=C(CCCCCCC(=O)Nc1ccccc1)NO [Vorinostat] (partner 1 µM)
Summary of the method: as §1

[2] = compound: CC1=C(C(=NN1)C)CC2=C(C3=C(S2)N(C(=O)N(C3=O)C)CC(C)C)C(=O)N4C[C@@H](CO4)O + C[C@@H](Oc1cc(-c2cnn(C3CCNCC3)c2)cnc1N)c1c(Cl)ccc(F)c1Cl [Crizotinib] (partner 1 µM)
Summary of the method: as §1

| Cell Line | relative viability ([1]; first compound 0.0025 µM) | relative viability ([1]; first compound 0.007906 µM) | relative viability ([1]; first compound 0.025 µM) | relative viability ([1]; first compound 0.07906 µM) | relative viability ([1]; first compound 0.25 µM) | relative viability (IDH-C35 + Bortezomib; first compound 0.08 µM) | relative viability (IDH-C35 + Bortezomib; first compound 0.253 µM) | relative viability (IDH-C35 + Bortezomib; first compound 0.8 µM) | relative viability (IDH-C35 + Bortezomib; first compound 2.53 µM) | relative viability (IDH-C35 + Bortezomib; first compound 8 µM) | relative viability (IDH-C35 + Vorinostat; first compound 0.08 µM) | relative viability (IDH-C35 + Vorinostat; first compound 0.253 µM) | relative viability (IDH-C35 + Vorinostat; first compound 0.8 µM) | relative viability (IDH-C35 + Vorinostat; first compound 2.53 µM) | relative viability (IDH-C35 + Vorinostat; first compound 8 µM) | relative viability ([2]; first compound 0.0025 µM) | relative viability ([2]; first compound 0.007906 µM) | relative viability ([2]; first compound 0.025 µM) | relative viability ([2]; first compound 0.07906 µM) | relative viability ([2]; first compound 0.25 µM) |
| --- | --- | --- | --- | --- | --- | --- | --- | --- | --- | --- | --- | --- | --- | --- | --- | --- | --- | --- | --- | --- |
| NCI-H2405 | 0.529 | 0.531 | 0.54 | 0.473 | 0.563 | 1 | 1 | 0.97 | 0.972 | 0.875 | 1.08 | 0.956 | 0.968 | 1.24 | 1.02 | 0.91 | 0.805 | 0.727 | 0.748 | 0.805 |
| NCI-H3122 | 0.165 | 0.241 | 0.205 | 0.176 | 0.209 | 1.1 | 1.01 | 0.985 | 1.02 | 1.02 | 1.01 | 0.947 | 0.793 | 0.773 | 1.08 | 0.281 | 0.26 | 0.276 | 0.259 | 0.299 |
| PC-3 [JPC-3] | 0.528 | 0.502 | 0.539 | 0.533 | 0.524 | 0.854 | 0.868 | 0.849 | 0.856 | 0.813 | 0.748 | 0.815 | 0.768 | 0.988 | 0.814 | 1.02 | 0.898 | 0.93 | 0.861 | 1.08 |
| PC-14 | 0.453 | 0.45 | 0.493 | 0.468 | 0.646 | 0.983 | 0.897 | 0.792 | 0.834 | 0.767 | 0.749 | 0.81 | 0.748 | 0.76 | 0.649 | 0.91 | 0.904 | 0.881 | 0.932 | 0.954 |
| RERF-LC-KJ | 1.12 | 1.11 | 1.04 | 1.06 | 1.12 | 1.09 | 1.08 | 1.1 | 1.2 | 1.19 | 0.655 | 0.636 | 0.698 | 0.718 | 0.754 | 0.862 | 0.819 | 0.823 | 0.865 | 0.88 |
| SK-LU-1 | 0.375 | 0.349 | 0.294 | 0.278 | 0.281 | 1.34 | 1.33 | 1.25 | – | 1.03 | 0.733 | 0.752 | 0.892 | 0.831 | 0.778 | 0.654 | 0.6 | 0.653 | 0.693 | 0.643 |
| SW 1573 | 0.469 | 0.439 | 0.42 | 0.407 | 0.47 | 1.06 | 1.19 | 0.967 | 1.06 | 1.05 | 0.859 | 0.851 | 0.7 | 0.588 | 0.666 | 0.955 | 0.866 | 0.798 | 0.786 | 0.812 |
